According to patent publication US10590140B2, “Tetrahydropyrimidodiazepine and dihydropyridodiazepine compounds for treating pain and pain related conditions” (ESTEVE PHARMACEUTICALS, S.A., priority 2016, dated 2020):
Read-outs that look alike come from different tables or passages of the source.

Legend:
[1] = biological target: human norepinephrine transporter (NET) (Homo sapiens (Human), UniProt P23975); test: Binding assay to human norepinephrine transporter (NET) ([3H]-Nisoxetin); settings: Table 2, dual compounds; [3H]-Nisoxetin binding
Sequence of human norepinephrine transporter (NET) (P23975 whole entry): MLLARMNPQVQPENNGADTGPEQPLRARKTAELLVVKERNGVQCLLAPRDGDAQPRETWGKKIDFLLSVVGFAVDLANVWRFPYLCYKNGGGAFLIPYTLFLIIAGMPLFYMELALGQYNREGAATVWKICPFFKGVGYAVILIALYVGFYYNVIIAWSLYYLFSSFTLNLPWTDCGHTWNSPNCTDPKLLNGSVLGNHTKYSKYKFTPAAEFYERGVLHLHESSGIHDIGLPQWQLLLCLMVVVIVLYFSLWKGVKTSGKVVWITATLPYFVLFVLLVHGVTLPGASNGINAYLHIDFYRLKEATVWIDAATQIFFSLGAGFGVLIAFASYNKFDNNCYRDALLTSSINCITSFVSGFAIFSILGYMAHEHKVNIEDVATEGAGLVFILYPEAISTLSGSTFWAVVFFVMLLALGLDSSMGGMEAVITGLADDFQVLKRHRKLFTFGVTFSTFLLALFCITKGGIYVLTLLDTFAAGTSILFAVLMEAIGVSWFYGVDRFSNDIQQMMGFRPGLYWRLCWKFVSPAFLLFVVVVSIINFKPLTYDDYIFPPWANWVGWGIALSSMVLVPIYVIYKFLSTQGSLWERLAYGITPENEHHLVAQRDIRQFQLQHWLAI
How it was run: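 NET-enriched membranes (5 μg) incubated with 5 nM [3H]-nisoxetin in 50 mM Tris-HCl, 120 mM NaCl, 5 mM KCl, pH 7.4, 60 min at 4 °C. Bound ligand separated by filtration on PEI-soaked GF/C and counted by scintillation; nonspecific binding defined with 1 μM competitor.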

[2] = biological target: human α2δ-1 subunit of Cav2.2 calcium channel (Homo sapiens (Human), UniProt P54289); test: Binding assay to human α2δ-1 subunit of Cav2.2 calcium channel ([3H]-Gabapentin); settings: read-out: Ki (nM) α2δ-1
Sequence of human α2δ-1 subunit of Cav2.2 calcium channel (P54289 25-1103): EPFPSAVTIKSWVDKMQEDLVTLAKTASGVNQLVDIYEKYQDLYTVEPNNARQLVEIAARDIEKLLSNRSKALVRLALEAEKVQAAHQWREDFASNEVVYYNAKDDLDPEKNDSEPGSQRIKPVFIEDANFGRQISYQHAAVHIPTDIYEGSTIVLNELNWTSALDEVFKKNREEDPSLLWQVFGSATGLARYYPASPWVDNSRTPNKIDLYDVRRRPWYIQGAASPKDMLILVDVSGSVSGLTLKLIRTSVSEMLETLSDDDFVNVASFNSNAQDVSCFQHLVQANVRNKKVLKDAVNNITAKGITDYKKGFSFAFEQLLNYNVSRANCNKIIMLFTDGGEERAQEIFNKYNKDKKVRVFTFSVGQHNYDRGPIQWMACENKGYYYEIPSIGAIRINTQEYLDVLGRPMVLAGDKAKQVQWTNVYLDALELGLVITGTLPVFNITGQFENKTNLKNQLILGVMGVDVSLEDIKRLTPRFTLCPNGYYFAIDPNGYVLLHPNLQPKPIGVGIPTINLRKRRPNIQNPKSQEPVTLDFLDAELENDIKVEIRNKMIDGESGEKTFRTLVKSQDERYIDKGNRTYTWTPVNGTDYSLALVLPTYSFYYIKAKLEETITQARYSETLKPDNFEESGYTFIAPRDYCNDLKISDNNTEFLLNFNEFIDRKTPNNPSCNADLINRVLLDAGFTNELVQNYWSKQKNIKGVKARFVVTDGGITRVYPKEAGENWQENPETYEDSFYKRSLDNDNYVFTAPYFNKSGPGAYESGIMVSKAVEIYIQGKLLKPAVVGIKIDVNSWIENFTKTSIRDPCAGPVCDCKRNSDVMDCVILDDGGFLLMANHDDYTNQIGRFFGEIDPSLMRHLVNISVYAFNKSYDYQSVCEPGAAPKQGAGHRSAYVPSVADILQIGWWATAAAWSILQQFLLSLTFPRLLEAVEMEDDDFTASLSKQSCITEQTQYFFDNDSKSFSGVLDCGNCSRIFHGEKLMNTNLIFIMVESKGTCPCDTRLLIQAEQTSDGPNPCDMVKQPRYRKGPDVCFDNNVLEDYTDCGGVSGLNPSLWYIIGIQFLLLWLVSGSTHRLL
How it was run: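 Radioactivity on dried GF/C filters quantified by scintillation after filtration and three cold Tris-HCl (pH 7.4) washes. Incubation ran 60 min at 27° C with [3H]-gabapentin; 10 μM pregabalin gave nonspecific binding.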

[3] = Table 2, dual compounds, [3H]-Gabapentin binding
[4] = binding to α2δ-1, [3H]-Gabapentin

Compound	Ki [1] [nM]	Ki [2, 3] [nM]	Ki [2, 4] [nM]
CNCCC(Oc1ccc(CN2CCN(C)c3ccncc3C2=O)cc1)c1cccs1 (stereo not drawn) [Example 381, 1-methyl-4-(4-(3-(methylamino)-1-(thiophen-2-yl)propoxy)benzyl)-1,2,3,4-tetrahydro-5H-pyrido[4,3-e][1,4]diazepin-5-one]	100 to 500	100 to 500	100 to 500
CNCC[C@H](Oc1ccc(CN2CCN(C)c3ccncc3C2=O)cc1)c1cccs1 [Example 382, (S)-1-methyl-4-(4-(3-(methylamino)-1-(thiophen-2-yl)propoxy)benzyl)-1,2,3,4-tetrahydro-5H-pyrido[4,3-e][1,4]diazepin-5-one]	100 to 500	100 to 500	100 to 500
CCNc1cc2c(cn1)C(=O)N(Cc1ccc(O[C@@H](CCNC)c3cccs3)cc1)CCN2C [Example 383, (S)-8-(ethylamino)-1-methyl-4-(4-(3-(methylamino)-1-(thiophen-2-yl)propoxy)benzyl)-1,2,3,4-tetrahydro-5H-pyrido[4,3-e][1,4]diazepin-5-one]	100 to 500	100 to 500	100 to 500
CNCC[C@H](Oc1ccc(CN2CCN(C)c3cc(OC)ncc3C2=O)cc1)c1cccs1 [Example 385, (S)-8-methoxy-1-methyl-4-(4-(3-(methylamino)-1-(thiophen-2-yl)propoxy)benzyl)-1,2,3,4-tetrahydro-5H-pyrido[4,3-e][1,4]diazepin-5-one]	100 to 500	100 to 500	100 to 500
CNCCC(Oc1ccc(CN2CCN(C)c3nc(OC)ncc3C2=O)cc1)c1sccc1C (stereo not drawn) [Example 388, 2-methoxy-9-methyl-6-(4-(3-(methylamino)-1-(3-methylthiophen-2-yl)propoxy)benzyl)-6,7,8,9-tetrahydro-5H-pyrimido[4,5-e][1,4]diazepin-5-one]	< 100	> 3000	> 3000
CCNc1ncc2c(n1)N(C)CCN(Cc1ccc(COC(CCNC)c3ccccc3)cc1)C2=O (stereo not drawn) [Example 405, 2-(ethylamino)-9-methyl-6-(4-((3-(methylamino)-1-phenylpropoxy)methyl)benzyl)-6,7,8,9-tetrahydro-5H-pyrimido[4,5-e][1,4]diazepin-5-one]	100 to 500	> 3000	> 3000
CCNc1ncc2c(n1)N(C)CCN(Cc1cccc(COC(CCNC)c3ccccc3)c1)C2=O (stereo not drawn) [Example 406, 2-(ethylamino)-9-methyl-6-(3-((3-(methylamino)-1-phenylpropoxy)methyl)benzyl)-6,7,8,9-tetrahydro-5H-pyrimido[4,5-e][1,4]diazepin-5-one]	100 to 500	> 3000	> 3000
CCNc1ncc2c(n1)N(C)CCN(Cc1ccc(OC(CCNC)c3ccccc3)cc1)C2=O (stereo not drawn) [Example 408, 2-(ethylamino)-9-methyl-6-(4-(3-(methylamino)-1-phenylpropoxy)benzyl)-6,7,8,9-tetrahydro-5H-pyrimido[4,5-e][1,4]diazepin-5-one]	< 100	500 to 3000	500 to 3000
CCNc1ncc2c(n1)N(C)CCN(Cc1cccc(COC(CNC)c3ccccc3)c1)C2=O (stereo not drawn) [Example 411, 2-(ethylamino)-9-methyl-6-(3-((2-(methylamino)-1-phenylethoxy)methyl)benzyl)-6,7,8,9-tetrahydro-5H-pyrimido[4,5-e][1,4]diazepin-5-one]	500 to 1000	> 3000	> 3000
CCNc1ncc2c(n1)N(C)CCN(Cc1ccc(COC(CNC)c3ccccc3)cc1)C2=O (stereo not drawn) [Example 413, 2-(ethylamino)-9-methyl-6-(4-((2-(methylamino)-1-phenylethoxy)methyl)benzyl)-6,7,8,9-tetrahydro-5H-pyrimido[4,5-e][1,4]diazepin-5-one]	100 to 500	500 to 3000	500 to 3000
CCNc1ncc2c(n1)N(C)CCN(Cc1ccc(O[C@@H](CCNC)c3ccccc3)cc1)C2=O [Example 414, (S)-2-(ethylamino)-9-methyl-6-(4-(3-(methylamino)-1-phenylpropoxy)benzyl)-6,7,8,9-tetrahydro-5H-pyrimido[4,5-e][1,4]diazepin-5-one]	< 100	500 to 3000	500 to 3000
CCNc1ncc2c(n1)N(C)CCN(Cc1ccc(O[C@H](CCNC)c3ccccc3)cc1)C2=O [Example 415, (R)-2-(ethylamino)-9-methyl-6-(4-(3-(methylamino)-1-phenylpropoxy)benzyl)-6,7,8,9-tetrahydro-5H-pyrimido[4,5-e][1,4]diazepin-5-one]	100 to 500	500 to 3000	500 to 3000
CNCC[C@H](Oc1ccc(CN2CCN(C)c3nc(N(C)C)ncc3C2=O)cc1)c1cccs1 [Example 419, (S)-2-(dimethylamino)-9-methyl-6-(4-(3-(methylamino)-1-(thiophen-2-yl)propoxy)benzyl)-6,7,8,9-tetrahydro-5H-pyrimido[4,5-e][1,4]diazepin-5-one]	100 to 500	100 to 500	100 to 500
CNCCC(OCc1ccc(CN2CCN(C)c3nc(C)ncc3C2=O)cc1)c1ccccc1 (stereo not drawn) [Example 422, 2,9-dimethyl-6-(4-((3-(methylamino)-1-phenylpropoxy)methyl)benzyl)-6,7,8,9-tetrahydro-5H-pyrimido[4,5-e][1,4]diazepin-5-one]	500 to 1000	> 3000	> 3000
CNCCC(OCc1cccc(CN2CCN(C)c3nc(C)ncc3C2=O)c1)c1ccccc1 (stereo not drawn) [Example 423, 2,9-dimethyl-6-(3-((3-(methylamino)-1-phenylpropoxy)methyl)benzyl)-6,7,8,9-tetrahydro-5H-pyrimido[4,5-e][1,4]diazepin-5-one]	100 to 500	> 3000	> 3000
CNCCC(Oc1ccc(CN2CCN(C)c3nc(C)ncc3C2=O)cc1)c1ccccc1 (stereo not drawn) [Example 425, 2,9-dimethyl-6-(4-(3-(methylamino)-1-phenylpropoxy)benzyl)-6,7,8,9-tetrahydro-5H-pyrimido[4,5-e][1,4]diazepin-5-one]	< 100	> 3000	> 3000
CCc1ncc2c(n1)N(C)CCN(Cc1ccc(OC(CCNC)c3ccccc3)cc1)C2=O (stereo not drawn) [Example 426, 2-ethyl-9-methyl-6-(4-(3-(methylamino)-1-phenylpropoxy)benzyl)-6,7,8,9-tetrahydro-5H-pyrimido[4,5-e][1,4]diazepin-5-one]	< 100	500 to 3000	500 to 3000
CNCCC(Oc1ccc(CN2CCN(C)c3ncncc3C2=O)cc1)c1ccccc1 (stereo not drawn) [Example 430, 9-methyl-6-(4-(3-(methylamino)-1-phenylpropoxy)benzyl)-6,7,8,9-tetrahydro-5H-pyrimido[4,5-e][1,4]diazepin-5-one]	< 100	500 to 3000	500 to 3000
CNCC[C@H](Oc1ccc(CN2CCN(C)c3ncncc3C2=O)cc1)c1ccccc1 [Example 433, (S)-9-methyl-6-(4-(3-(methylamino)-1-phenylpropoxy)benzyl)-6,7,8,9-tetrahydro-5H-pyrimido[4,5-e][1,4]diazepin-5-one]	< 100	500 to 3000	500 to 3000
CNCC[C@@H](Oc1ccc(CN2CCN(C)c3ncncc3C2=O)cc1)c1ccccc1 [Example 434, (R)-9-methyl-6-(4-(3-(methylamino)-1-phenylpropoxy)benzyl)-6,7,8,9-tetrahydro-5H-pyrimido[4,5-e][1,4]diazepin-5-one]	100 to 500	> 3000	> 3000
CCNc1ncc2c(n1)N(C)CCN(c1cccc(-c3nnc(CN4CCC(c5cccc(O)c5)(N(C)C)CC4)o3)c1)C2=O [Example 442, 6-(3-(5-((4-(dimethylamino)-4-(3-hydroxyphenyl)piperidin-1-yl)methyl)-1,3,4-oxadiazol-2-yl)phenyl)-2-(ethylamino)-9-methyl-6,7,8,9-tetrahydro-5H-pyrimido[4,5-e][1,4]diazepin-5-one]	< 100	< 100	< 100
